Reference: US6713638B2, “2-amino-3-aroyl-4,5 alkylthiophenes: agonist allosteric enhancers at human A1 adenosine receptors” (priority 2001, dated 2004)

Tests used:
[1] = target: T1, A1AR (Homo sapiens, UniProt P30542); assay: A1AR antagonistic activity: competition with equilibrium binding of [3H]CPX; conditions: 100 μM, N = 3; for inhibition at 100 µM: read-out: Antagonist activity, % (% inhibition of specific equilibrium binding of [3H]8-cyclopentyl-1,3-dipropylxanthine)
T1 sequence (P30542 1-326): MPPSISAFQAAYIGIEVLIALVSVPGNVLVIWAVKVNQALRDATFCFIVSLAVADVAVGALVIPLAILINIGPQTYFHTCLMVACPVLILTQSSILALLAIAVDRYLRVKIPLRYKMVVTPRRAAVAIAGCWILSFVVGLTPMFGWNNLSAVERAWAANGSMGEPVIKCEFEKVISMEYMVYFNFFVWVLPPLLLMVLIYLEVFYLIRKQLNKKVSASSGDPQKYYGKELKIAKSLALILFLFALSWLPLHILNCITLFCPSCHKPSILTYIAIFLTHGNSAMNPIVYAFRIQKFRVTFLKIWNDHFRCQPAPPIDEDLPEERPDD
From the text: Several of the candidate AEs had substantial antagonistic activity. However, the AE and antagonist activities are unrelated (r^2=0.057, n=28).

[2] = target: T2, hA1AR (Homo sapiens, UniProt P30542); assay: Assay of AE (allosteric enhancer) activity: slowing of 125I-ABA dissociation from the A1AR-G protein ternary complex; assay type: binding; conditions: CHO-K1 membranes; for AE Score, %: 0.1 mM final AE, specifically bound 125I-ABA remaining after 10 minutes of dissociation, Mean ± SEM (N = 3)
T2 construct: expressed in transfected cells; membranes
T2 sequence (P30542 1-326): T1 sequence (P30542 1-326)
From the text: The allosteric enhancer (AE) activity was studied at the human A1AR (hA1AR) of a panel of compounds consisting of nine 2-amino-3-aroylthiophenes, (3a-i), eight 2-amino-3-benzoyl-4,5-dimethylthiophenes (13a-h), […] 3-aroyl-2-carboxy-4,5-dimethylthiophenes, (17a-e), ten 2-amino-3-benzoyl-5,6-ihydro-4H-cyclopenta[b]thiophenes, (19a-I), fourteen 2-amino-3-benzoyl-4,5,6,7-tetrahyd robenzo-[b]thiophenes, (20a-n), and fifteen 2-amino-3-benzoyl-5,6,7,8-tetrahydro-4H-cyclohepta[b]thiophenes, (21a-o). An in vitro assay employing the A1AR agonist ^125I-N^6-aminobenzyladenosine (^125I-ABA) and membranes from CHO-K1 cells stably expressing the hA1AR measured, as an index of AE activity, the ability of a candidate AE to slow the dissociation of the radioligand from the A1AR-G protein ternary complex.
The assay of AE activity consisted of three phases: formation of the ^125I-ABA-A1AR-G protein ternary complex; binding of the AE to the allosteric site, and dissociation of the complex by adding a combination of an A1AR antagonist (100 μM cyclopentyltheophylline) and 50 µM GTPγS. This procedure detects only AE activity since phase 3 (dissociation) is affected only by the allosteric activity of the test compound and is not affected by competitive antagonist activity. GTPγS is added to accelerate the dissociation process. […] The assay employed membranes from CHO-K1 cells stably expressing the hA1AR. For agonist binding to equilibrium, the incubation mixture consisted of 10 mM HEPES, pH 7.2, containing 0.5 mM MgCl2, 1 U/mL adenosine deaminase, 0.5 nM ^125I-ABA and 10 μg of membrane protein in a final volume of 100 μL. This phase of the assay was allowed to proceed to equilibrium (>90 minutes) at room temperature. At that point phase 2 was initiated by adding 50 μL of a 0.3 mM solution (0.1 mM final) of a candidate AE or DMSO vehicle to rapidly occupy the allosteric site. Stock solutions of AEs (10 mM) were prepared in DMSO. Five minutes later phase 3 was initiated by the addition of 50 μL of a solution containing 400 μM 8-cyclopentyltheophylline and 200 μM GTPγS. Ten minutes later, residual radioligand bound to Aireceptors was trapped on Whatman GF/C glass fiber filters using a Brandel cell harvester, washed 3 times over a 20 second interval and counted in a γ-counter. The percentage of specifically bound agonist remaining after 10 minutes of dissociation was used to calculate the “score” of AE activity:
AE activity score=100×(B−Bo)/(Beq−Bo)
Where B=residual binding (cpm) bound at the end of 10 minutes of dissociation in the presence of an AE, Bo=residual binding (cpm) at the end of 10 minutes of dissociation in the absence of an AE, and Beq=cpm bound at the end of phase 2. A compound with no AE activity has a score of 0 in this assay. An AE which completely arrests agonist dissociation will have a score of 100.

[3] = test system: adenosine A1 receptors; conditions: background statement, cited from earlier work

SMILES | inhibition at 100 µM [1] | melting point | AE Score, % [2] | AE activity (in words) ([2]; hA1AR) | Antagonist activity, % (% inhibition of specific equilibrium binding of [3H]8-cyclopentyl-1,3-dipropylxanthine) [1] | enhancement at A1 receptors [3] | selectivity for adenosine A1 receptors ([3]; other adenosine receptor subtypes, other classes of receptors)
Nc1sccc1C(=O)c1ccccc1 [Compound 3a, 2-Amino-3-benzoylthiophene] | 24% | 147 °C | 0.2 ± 0.01% | – | – | – | –
NC1SC2=CCCC2=C1C(=O)c1cccc(Br)c1 (stereo not drawn) [Compound 19d, 2-Amino-3-(3-bromobenzoyl)-4,5-dihydrocyclopenta[b]thiophene] | 76% | 202 °C | 13 ± 3% | – | – | – | –
Nc1sc2c(c1C(=O)c1ccc(-c3ccccc3)cc1)CCCC2 [Compound 20l, 2-Amino-3-(4-phenylbenzoyl)-4,5,6,7-tetrahydrobenzo[b]thiophene] | – | 110 °C | 33 ± 2% | excellent activity | – | – | –
Nc1sc2c(c1C(=O)c1ccc(I)cc1)CCCCC2 [Compound 21i] | – | – | 96 ± 4.7% | – | 11% | – | –
COc1cccc(C(=O)c2c(N)sc3c2CCCCC3)c1 [Compound 21j] | – | – | 99 ± 3.1% | – | 19% | – | –
Cc1sc(N)c(C(=O)c2cccc(C(F)(F)F)c2)c1C [PD 81,723] | – | – | – | – | – | enhancement at A1 receptors of all species tested to date | no effects on other adenosine receptor subtypes or on other classes of receptors
